The values that follow come from patent publication US20090221642A1, “MUSCARINIC RECEPTOR AGONISTS, COMPOSITIONS, METHODS OF TREATMENT THEREOF, AND PROCESSES FOR PREPARATION THEREOF-176” (AstraZeneca AB, priority 2008, published 2009).

Where two headings read alike, the source gives them in different places.

In assay [1] the target is T1, hM1 (human Muscarinic receptor subtype 1) (Homo sapiens, UniProt P11229).
T1 construct: expressed in transfected cells; host or cells: CHO cells (Chinese hamster ovary cells, ATCC)
T1 sequence (P11229 1-460): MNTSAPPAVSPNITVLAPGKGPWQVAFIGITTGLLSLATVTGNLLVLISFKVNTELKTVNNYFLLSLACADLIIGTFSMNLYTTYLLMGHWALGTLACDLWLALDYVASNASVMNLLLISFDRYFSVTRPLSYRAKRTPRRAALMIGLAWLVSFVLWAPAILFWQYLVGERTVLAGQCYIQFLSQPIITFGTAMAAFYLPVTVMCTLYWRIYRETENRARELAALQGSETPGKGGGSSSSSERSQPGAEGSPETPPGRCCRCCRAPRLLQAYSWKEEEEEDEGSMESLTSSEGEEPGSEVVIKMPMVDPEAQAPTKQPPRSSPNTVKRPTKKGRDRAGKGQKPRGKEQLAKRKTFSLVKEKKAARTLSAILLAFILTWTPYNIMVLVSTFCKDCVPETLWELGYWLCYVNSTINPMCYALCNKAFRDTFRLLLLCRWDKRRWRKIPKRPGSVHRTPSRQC
As to the kind of experiment: Human M1 calcium mobilization FLIPR assay. The class given is cell-based. The settings on record: hM1 expressed in CHO cells, intracellular Ca2+ release. Put shortly: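 CHO cells expressing the receptor, dye-loaded at 37°C for 60 min, read on FLIPR at 510-570 nm. Agonism taken from compound-induced Ca2+ rise (max RFU for M1); M3/M5 inhibition measured against 2 nM acetylcholine using max minus min RFU. 10-point threefold dilutions, sigmoidal fits.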
For orientation: Calcium assays in cells follow changes in intracellular calcium, usually with a dye or a luminescent sensor.

In assay [2] the target is T2, cloned human M2 receptor (human Muscarinic receptor subtype 2) (Homo sapiens, UniProt P08172).
T2 construct: purchased Perkin-Elmer RBHM2M; host or cells: Chinese hamster ovary cells (CHO) membranes
T2 sequence (P08172 1-466): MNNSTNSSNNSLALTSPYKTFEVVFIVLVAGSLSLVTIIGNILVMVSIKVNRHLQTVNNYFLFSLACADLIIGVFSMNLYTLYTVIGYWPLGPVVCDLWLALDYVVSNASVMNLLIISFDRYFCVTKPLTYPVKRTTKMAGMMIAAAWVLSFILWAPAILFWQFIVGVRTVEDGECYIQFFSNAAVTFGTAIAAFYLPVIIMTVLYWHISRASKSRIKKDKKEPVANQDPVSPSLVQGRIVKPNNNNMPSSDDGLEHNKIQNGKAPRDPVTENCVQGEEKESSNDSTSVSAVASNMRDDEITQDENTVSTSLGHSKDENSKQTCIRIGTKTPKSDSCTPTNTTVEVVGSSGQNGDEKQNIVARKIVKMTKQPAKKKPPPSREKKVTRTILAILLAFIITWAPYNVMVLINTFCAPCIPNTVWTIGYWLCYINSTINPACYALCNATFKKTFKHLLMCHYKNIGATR
As to the kind of experiment: hM2 receptor GTPγS binding. In kind it is biochemical. The conditions noted are these: CHO cell membranes expressing hM2, [35S]GTPγS binding. On the procedure:
hM2 Receptor GTPγS Binding
Membranes produced from Chinese hamster ovary cells (CHO) expressing the cloned human M2 receptor (human Muscarinic receptor subtype 2, gene bank access NM_000739), are obtained from Perkin-Elmer (RBHM2M). The membranes are thawed at 37° C., passed 3 times through a 23-gauge blunt-end needle, diluted in the GTPγS binding buffer (50 mM Hepes, 20 mM NaOH, 100 mM NaCl, 1 mM EDTA, 5 mM MgCl2, pH 7.4, 100 μM DTT). The EC50, IC50 and Emax of the compounds of the invention are evaluated from 10-point dose-response curves (three fold concentration range) done in 60 μl in 384-well non-specific binding surface plate (Corning). Ten microliters from the dose-response curves plate (5× concentration) are transferred to another 384 well plate containing 25 μl of the following: 5 μg of hM2 membranes, 500 μg of Flashblue beads (Perkin-Elmer) and GDP 25 μM. An additional 15 μl containing 3.3× (60,000 dpm) of GTPγ^35S (0.4 nM final) are added to the wells resulting in a total well volume of 50 μl. Basal and maximal stimulated [^35S]GTPγS binding are determined in absence and presence of 30 μM final of acetylcholine agonist. The membranes/beads mix are pre-incubated for 15 minutes at room temperature with 25 μM GDP prior to distribution in plates (12.5 μM final). The reversal of acetylcholine-induced stimulation (2 μM final) of [^35S]GTPγS binding is used to assay the antagonist properties (IC50) of the compounds. The plates are incubated for 60 minutes at room temperature then centrifuged at 400 rpm for 5 minutes. The radioactivity (cpm) is counted in a Trilux (Perkin-Elmer).
Values of EC50, IC50 and Emax are obtained using sigmoidal fits of a non-linear curve-fitting program (XLfit version 4.2.2 Excel add-in version 4.2.2 build 18 math 1Q version 2.1.2 build 18) of percent stimulated [^35S]GTPγS binding vs. log(molar ligand). All pEC50 and plC50 values are reported as arithmetic means ±standard error of mean of ‘n’ independent experiments.
(GTPγS is a poorly hydrolysed GTP analogue; its binding reports G protein activation.)

As for `COC(=O)N1CCC(C)(N2CCC(n3c(=O)[nH]c4ccc(C)cc43)CC2)C1` (single isomer, unassigned) [Example 47, methyl 3-methyl-3-(4-(6-methyl-2-oxo-2,3-dihydro-1H-benzo[d]imidazol-1-yl)piperidin-1-yl)pyrrolidine-1-carboxylate], the EC50 in assay [1] (read-out: hM1 EC50) is less than 3.2 nM; in assay [2] (read-out: hM2 EC50), 127 nM.
Consider `CCOC(=O)N1CCC(C)(N2CCC(N3C(=O)Cc4cc(F)c(C)cc43)CC2)C1` (single isomer, unassigned) [Example 81, ethyl 3-(4-(5-fluoro-6-methyl-2-oxoindolin-1-yl)piperidin-1-yl)-3-methylpyrrolidine-1-carboxylate], for which the EC50 turned out to be 8.7 nM in assay [1] (read-out: hM1 EC50) and 1670 nM in assay [2] (read-out: hM2 EC50).
On to `CC#CCOC(=O)N1CCC(C)(N2CCC(n3c(=O)[nH]c4ccccc43)CC2)C1` (single isomer, unassigned) [Example 34, but-2-ynyl 3-methyl-3-(4-(2-oxo-2,3-dihydro-1H-benzo[d]imidazol-1-yl)piperidin-1-yl)pyrrolidine-1-carboxylate], for which the EC50 in assay [1] (read-out: hM1 EC50) was determined as 14.7 nM; in assay [2] (read-out: hM2 EC50), 897 nM.
Take `COC(=O)N1CCC(C)(N2CCC(N3C(=O)Cc4cc(F)c(C)cc43)CC2)C1` (single isomer, unassigned) [Example 84, methyl 3-(4-(5-fluoro-6-methyl-2-oxoindolin-1-yl)piperidin-1-yl)-3-methylpyrrolidine-1-carboxylate]: the figures for the EC50 in assay [1] (hM1 EC50 (nM)) and in assay [2] (hM2 EC50 (nM)) were 7.7 nM and 684 nM, respectively.
As to `Cc1ccc2c(c1)[nH]c(=O)n2C1CCN(C2(C)CCN(C(=O)OCCF)C2)CC1` (single isomer, unassigned) [Example 27, 2-fluoroethyl 3-methyl-3-(4-(5-methyl-2-oxo-2,3-dihydro-1H-benzo[d]imidazol-1-yl)piperidin-1-yl)pyrrolidine-1-carboxylate], the figures for the EC50 in assay [1] (read-out: hM1 EC50) and in assay [2] (read-out: hM2 EC50) were 10.8 nM and 620 nM, respectively.
For `COC(=O)N1CCC(C)(N2CCC(n3c(=O)[nH]c4ccc(C)cc43)CC2)C1` (single isomer, unassigned) [Example 45, methyl 3-methyl-3-(4-(6-methyl-2-oxo-2,3-dihydro-1H-benzo[d]imidazol-1-yl)piperidin-1-yl)pyrrolidine-1-carboxylate], in that order: 14.1 nM and 1640 nM.
With `CCOC(=O)N1CCC(C)(N2CCC(n3c(=O)[nH]c4ccc(F)cc43)CC2)C1` (single isomer, unassigned) [Example 50, ethyl 3-(4-(6-fluoro-2-oxo-2,3-dihydro-1H-benzo[d]imidazol-1-yl)piperidin-1-yl)-3-methylpyrrolidine-1-carboxylate], the EC50 in assay [1] (read-out: hM1 EC50) is 2.2 nM; in assay [2] (read-out: hM2 EC50), 498 nM.
With `CCOC(=O)N1CCC(C)(N2CCC(n3c(=O)[nH]c4cc(F)c(C)cc43)CC2)C1` (single isomer, unassigned) [Example 56, ethyl 3-(4-(5-fluoro-6-methyl-2-oxo-2,3-dihydro-1H-benzo[d]imidazol-1-yl)piperidin-1-yl)-3-methylpyrrolidine-1-carboxylate], the EC50 is 3.5 nM in assay [1] (read-out: hM1 EC50) and 24 nM in assay [2] (read-out: hM2 EC50).
For `CC1(N2CCC(n3c(=O)[nH]c4ccc(F)cc43)CC2)CCN(C(=O)OCCF)C1` (single isomer, unassigned) [Example 53, 2-fluoroethyl 3-(4-(6-fluoro-2-oxo-2,3-dihydro-1H-benzo[d]imidazol-1-yl)piperidin-1-yl)-3-methylpyrrolidine-1-carboxylate], the figures for the EC50 in assay [1] (read-out: hM1 EC50) and in assay [2] (read-out: hM2 EC50) were 11.5 nM and 1620 nM, respectively.
Regarding `CCOC(=O)N1CCC(C)(N2CCC(n3c(=O)[nH]c4cc(F)c(F)cc43)CC2)C1` (single isomer, unassigned) [Example 58, ethyl 3-(4-(5,6-difluoro-2-oxo-2,3-dihydro-1H-benzo[d]imidazol-1-yl)piperidin-1-yl)-3-methylpyrrolidine-1-carboxylate], the EC50 was determined as 17.7 nM in assay [1] (read-out: hM1 EC50) and 2100 nM in assay [2] (read-out: hM2 EC50).
The corresponding values for `C#CCOC(=O)N1CCC(C)(N2CCC(n3c(=O)[nH]c4cc(F)ccc43)CC2)C1` (stereo not shown) [Example 11, prop-2-ynyl 3-(4-(5-fluoro-2-oxo-2,3-dihydro-1H-benzo[d]imidazol-1-yl)piperidin-1-yl)-3-methylpyrrolidine-1-carboxylate] are 2 nM and 149 nM.
As for `CC1(N2CCC(n3c(=O)[nH]c4ccccc43)CC2)CCN(C(=O)OCCF)C1` (single isomer, unassigned) [Example 32, 2-fluoroethyl 3-methyl-3-(4-(2-oxo-2,3-dihydro-1H-benzo[d]imidazol-1-yl)piperidin-1-yl)pyrrolidine-1-carboxylate], the EC50 was 52.1 nM in assay [1] (read-out: hM1 EC50) and 5840 nM in assay [2] (read-out: hM2 EC50).
Consider `COC(=O)N1CCC(C)(N2CCC(n3c(=O)[nH]c4cc(C)ccc43)CC2)C1` (single isomer, unassigned) [Example 48, methyl 3-methyl-3-(4-(5-methyl-2-oxo-2,3-dihydro-1H-benzo[d]imidazol-1-yl)piperidin-1-yl)pyrrolidine-1-carboxylate], for which the EC50 amounted to 8.5 nM in assay [1] (read-out: hM1 EC50) and 571 nM in assay [2] (read-out: hM2 EC50).
Turning to `Cc1ccc2[nH]c(=O)n(C3CCN(C4(C)CCN(C(=O)OC(C)C)C4)CC3)c2c1` (single isomer, unassigned) [Example 39, isopropyl 3-methyl-3-(4-(6-methyl-2-oxo-2,3-dihydro-1H-benzo[d]imidazol-1-yl)piperidin-1-yl)pyrrolidine-1-carboxylate], the figures for the EC50 in assay [1] (read-out: hM1 EC50) and in assay [2] (read-out: hM2 EC50) were 26.7 nM and greater than 12800 nM, respectively.
With `COC(=O)N1CCC(C)(N2CCC(N3C(=O)Cc4ccc(C)cc43)CC2)C1` (single isomer, unassigned) [Example 68, methyl 3-methyl-3-(4-(6-methyl-2-oxoindolin-1-yl)piperidin-1-yl)pyrrolidine-1-carboxylate], the figures for the EC50 in assay [1] (read-out: hM1 EC50) and in assay [2] (read-out: hM2 EC50) were 13.3 nM and 1150 nM, respectively.
On to `Cc1ccc2c(c1)[nH]c(=O)n2C1CCN(C2(C)CCN(C(=O)OC(C)C)C2)CC1` (single isomer, unassigned) [Example 14, isopropyl 3-methyl-3-(4-(5-methyl-2-oxo-2,3-dihydro-1H-benzo[d]imidazol-1-yl)piperidin-1-yl)pyrrolidine-1-carboxylate], for which the EC50 was found to be 48.3 nM in assay [1] (read-out: hM1 EC50) and 1500 nM in assay [2] (read-out: hM2 EC50).
On to `COC(=O)N1CCC(C)(N2CCC(n3c(=O)[nH]c4ccc(C)cc43)CC2)C1` (stereo not shown) [Example 17, methyl 3-methyl-3-(4-(6-methyl-2-oxo-2,3-dihydro-1H-benzo[d]imidazol-1-yl)piperidin-1-yl)pyrrolidine-1-carboxylate], for which the half-maximal effective concentration (EC50) in assay [1] (read-out: hM1 EC50) is 9.7 nM; in assay [2] (read-out: hM2 EC50), 709 nM.

Broadly, the EC50 is the concentration at which the effect is half-maximal.
